We go through 17 compounds from ChEMBL document CHEMBL5291721, “A preclinical secondary pharmacology resource illuminates target-adverse drug reaction associations of marketed drugs” (Nat Commun, 2023).

Each structure is given as a SMILES string.

In test [1] the target is Epidermal growth factor receptor (Homo sapiens, UniProt P00533). Type of test: functional.
The target in another test is T1, Glucocorticoid receptor (Homo sapiens, UniProt P04150).
T1 sequence (P04150 whole entry): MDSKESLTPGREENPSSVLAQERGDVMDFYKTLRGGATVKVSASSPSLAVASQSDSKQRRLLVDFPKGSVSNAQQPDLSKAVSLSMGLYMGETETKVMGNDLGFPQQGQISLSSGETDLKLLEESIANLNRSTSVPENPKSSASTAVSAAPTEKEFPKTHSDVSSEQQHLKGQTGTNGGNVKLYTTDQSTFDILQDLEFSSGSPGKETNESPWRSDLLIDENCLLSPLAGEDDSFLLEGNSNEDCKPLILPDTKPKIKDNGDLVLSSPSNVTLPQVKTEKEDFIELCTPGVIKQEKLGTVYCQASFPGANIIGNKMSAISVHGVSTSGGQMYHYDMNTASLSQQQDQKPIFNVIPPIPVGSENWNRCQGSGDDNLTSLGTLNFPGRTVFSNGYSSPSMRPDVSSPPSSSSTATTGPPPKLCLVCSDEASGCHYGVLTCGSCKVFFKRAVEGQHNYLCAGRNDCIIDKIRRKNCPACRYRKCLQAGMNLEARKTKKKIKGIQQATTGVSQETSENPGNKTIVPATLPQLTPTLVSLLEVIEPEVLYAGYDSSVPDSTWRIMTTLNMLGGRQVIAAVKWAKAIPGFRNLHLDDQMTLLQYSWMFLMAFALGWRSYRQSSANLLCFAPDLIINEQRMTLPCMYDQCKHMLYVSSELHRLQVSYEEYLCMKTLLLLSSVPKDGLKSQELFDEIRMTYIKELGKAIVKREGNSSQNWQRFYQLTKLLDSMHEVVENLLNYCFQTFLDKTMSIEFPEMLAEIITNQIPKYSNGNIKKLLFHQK
Type of test: functional.

Test [2] concerns the target T2, Peroxisome proliferator-activated receptor gamma (Homo sapiens, UniProt P37231).
T2 sequence (P37231 whole entry): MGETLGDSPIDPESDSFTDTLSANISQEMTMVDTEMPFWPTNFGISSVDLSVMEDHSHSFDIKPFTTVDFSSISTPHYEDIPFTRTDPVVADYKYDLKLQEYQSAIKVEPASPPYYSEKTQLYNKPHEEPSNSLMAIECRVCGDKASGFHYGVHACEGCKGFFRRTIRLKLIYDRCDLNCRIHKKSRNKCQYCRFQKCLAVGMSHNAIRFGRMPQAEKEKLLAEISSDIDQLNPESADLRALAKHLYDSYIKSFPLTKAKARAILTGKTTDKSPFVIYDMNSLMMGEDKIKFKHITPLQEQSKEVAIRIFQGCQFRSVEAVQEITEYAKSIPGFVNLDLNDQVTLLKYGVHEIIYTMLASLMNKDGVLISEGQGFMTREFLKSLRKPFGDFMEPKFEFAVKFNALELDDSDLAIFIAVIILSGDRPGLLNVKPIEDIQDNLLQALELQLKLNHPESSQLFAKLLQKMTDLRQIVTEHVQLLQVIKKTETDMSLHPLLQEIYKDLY
Type of test: functional.

Test [3] deals with T3, Corticotropin-releasing factor receptor 1 (Homo sapiens, UniProt P34998).
T3 sequence (P34998 whole entry): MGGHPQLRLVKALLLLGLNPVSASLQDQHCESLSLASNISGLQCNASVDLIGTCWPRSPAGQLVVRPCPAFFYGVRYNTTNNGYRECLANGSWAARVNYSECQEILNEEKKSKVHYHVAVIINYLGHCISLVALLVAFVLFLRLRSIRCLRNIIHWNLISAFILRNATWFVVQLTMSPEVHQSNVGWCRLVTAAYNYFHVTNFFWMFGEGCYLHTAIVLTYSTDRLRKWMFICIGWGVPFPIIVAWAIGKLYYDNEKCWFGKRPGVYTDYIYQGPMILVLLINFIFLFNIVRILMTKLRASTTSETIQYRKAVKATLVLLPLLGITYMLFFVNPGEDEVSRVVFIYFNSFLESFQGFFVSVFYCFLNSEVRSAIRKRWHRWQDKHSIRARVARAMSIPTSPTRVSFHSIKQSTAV

Test [4] has as its target Gamma-aminobutyric acid receptor subunit alpha-1/alpha-2/beta-2/gamma-2 (Homo sapiens, UniProt P14867+P18507+P47869+P47870). Type of test: protein-complex assay.
Another test concerns the target Glucagon receptor (Homo sapiens, UniProt P47871).
Test [5] concerns the target T4, Gastric inhibitory polypeptide receptor (Homo sapiens, UniProt P48546).
T4 sequence (P48546 whole entry): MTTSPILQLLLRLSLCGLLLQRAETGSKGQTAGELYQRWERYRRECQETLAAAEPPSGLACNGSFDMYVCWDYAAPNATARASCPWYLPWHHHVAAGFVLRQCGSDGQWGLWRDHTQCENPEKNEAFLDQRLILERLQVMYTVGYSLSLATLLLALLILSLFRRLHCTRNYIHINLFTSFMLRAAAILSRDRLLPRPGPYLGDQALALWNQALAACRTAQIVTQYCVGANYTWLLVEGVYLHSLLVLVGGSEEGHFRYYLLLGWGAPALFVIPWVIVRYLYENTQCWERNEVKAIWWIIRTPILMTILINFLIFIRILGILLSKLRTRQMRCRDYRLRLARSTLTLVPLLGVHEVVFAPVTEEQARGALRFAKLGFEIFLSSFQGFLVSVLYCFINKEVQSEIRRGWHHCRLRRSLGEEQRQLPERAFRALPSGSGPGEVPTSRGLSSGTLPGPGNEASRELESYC

The target of test [6] is 5-hydroxytryptamine receptor 2B (Homo sapiens, UniProt P41595).
Test [7] has as its target T5, Muscarinic acetylcholine receptor M2 (Homo sapiens, UniProt P08172).
T5 sequence (P08172 whole entry): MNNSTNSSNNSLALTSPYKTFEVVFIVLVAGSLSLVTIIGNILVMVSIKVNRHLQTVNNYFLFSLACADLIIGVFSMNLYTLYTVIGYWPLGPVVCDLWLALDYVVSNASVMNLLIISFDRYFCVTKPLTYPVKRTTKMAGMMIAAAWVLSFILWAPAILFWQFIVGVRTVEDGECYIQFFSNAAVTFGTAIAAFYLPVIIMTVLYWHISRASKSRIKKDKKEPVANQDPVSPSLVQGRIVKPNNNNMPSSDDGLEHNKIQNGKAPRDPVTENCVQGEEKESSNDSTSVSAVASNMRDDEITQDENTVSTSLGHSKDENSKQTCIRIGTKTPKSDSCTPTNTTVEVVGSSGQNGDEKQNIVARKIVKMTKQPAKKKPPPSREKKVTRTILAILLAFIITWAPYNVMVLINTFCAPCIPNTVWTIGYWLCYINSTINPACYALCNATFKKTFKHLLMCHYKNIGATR
Further: assay procedure not described here.

Epidermal growth factor receptor, sequence (P00533 whole entry): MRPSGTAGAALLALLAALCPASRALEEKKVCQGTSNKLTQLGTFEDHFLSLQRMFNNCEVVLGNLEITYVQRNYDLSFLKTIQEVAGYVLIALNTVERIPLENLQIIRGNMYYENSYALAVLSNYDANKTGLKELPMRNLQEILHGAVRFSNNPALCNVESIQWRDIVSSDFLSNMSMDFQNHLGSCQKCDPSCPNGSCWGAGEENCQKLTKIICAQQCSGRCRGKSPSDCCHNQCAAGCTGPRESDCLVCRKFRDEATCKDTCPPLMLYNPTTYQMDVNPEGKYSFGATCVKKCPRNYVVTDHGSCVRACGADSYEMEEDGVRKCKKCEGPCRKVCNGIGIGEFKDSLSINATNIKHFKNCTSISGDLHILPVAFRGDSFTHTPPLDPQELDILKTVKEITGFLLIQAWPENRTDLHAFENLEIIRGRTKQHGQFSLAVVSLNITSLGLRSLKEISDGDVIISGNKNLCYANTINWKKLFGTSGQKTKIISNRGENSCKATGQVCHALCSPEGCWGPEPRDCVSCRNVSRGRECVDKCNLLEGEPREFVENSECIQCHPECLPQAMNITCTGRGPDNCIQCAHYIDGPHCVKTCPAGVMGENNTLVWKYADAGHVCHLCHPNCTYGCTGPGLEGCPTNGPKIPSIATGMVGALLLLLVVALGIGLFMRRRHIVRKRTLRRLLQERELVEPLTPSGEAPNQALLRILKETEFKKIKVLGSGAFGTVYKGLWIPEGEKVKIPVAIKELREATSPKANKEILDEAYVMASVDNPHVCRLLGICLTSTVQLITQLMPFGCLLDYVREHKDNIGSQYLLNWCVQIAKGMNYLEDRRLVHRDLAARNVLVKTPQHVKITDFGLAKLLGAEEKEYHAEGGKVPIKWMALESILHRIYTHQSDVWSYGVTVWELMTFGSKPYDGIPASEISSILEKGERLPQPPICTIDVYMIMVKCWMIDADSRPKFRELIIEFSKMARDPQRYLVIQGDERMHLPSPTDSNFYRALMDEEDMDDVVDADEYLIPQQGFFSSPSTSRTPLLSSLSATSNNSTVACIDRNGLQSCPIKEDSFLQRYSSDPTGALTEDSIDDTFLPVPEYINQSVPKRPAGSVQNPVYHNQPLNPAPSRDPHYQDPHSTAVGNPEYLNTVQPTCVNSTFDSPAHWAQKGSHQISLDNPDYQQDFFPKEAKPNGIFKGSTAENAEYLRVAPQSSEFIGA
5-hydroxytryptamine receptor 2B, sequence (P41595 whole entry): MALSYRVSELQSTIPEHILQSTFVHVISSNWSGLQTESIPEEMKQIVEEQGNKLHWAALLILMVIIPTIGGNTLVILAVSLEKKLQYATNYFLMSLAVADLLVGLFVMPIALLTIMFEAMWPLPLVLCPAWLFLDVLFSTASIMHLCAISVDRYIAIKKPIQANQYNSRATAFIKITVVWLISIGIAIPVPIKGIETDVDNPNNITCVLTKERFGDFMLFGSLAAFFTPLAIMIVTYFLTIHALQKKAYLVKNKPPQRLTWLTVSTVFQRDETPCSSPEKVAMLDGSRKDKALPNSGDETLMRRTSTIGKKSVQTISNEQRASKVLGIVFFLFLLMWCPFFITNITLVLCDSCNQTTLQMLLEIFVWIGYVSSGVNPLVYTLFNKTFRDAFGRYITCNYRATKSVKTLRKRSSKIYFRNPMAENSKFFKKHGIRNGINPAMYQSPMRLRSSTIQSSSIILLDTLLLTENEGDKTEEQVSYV
Glucagon receptor, sequence (P47871 whole entry): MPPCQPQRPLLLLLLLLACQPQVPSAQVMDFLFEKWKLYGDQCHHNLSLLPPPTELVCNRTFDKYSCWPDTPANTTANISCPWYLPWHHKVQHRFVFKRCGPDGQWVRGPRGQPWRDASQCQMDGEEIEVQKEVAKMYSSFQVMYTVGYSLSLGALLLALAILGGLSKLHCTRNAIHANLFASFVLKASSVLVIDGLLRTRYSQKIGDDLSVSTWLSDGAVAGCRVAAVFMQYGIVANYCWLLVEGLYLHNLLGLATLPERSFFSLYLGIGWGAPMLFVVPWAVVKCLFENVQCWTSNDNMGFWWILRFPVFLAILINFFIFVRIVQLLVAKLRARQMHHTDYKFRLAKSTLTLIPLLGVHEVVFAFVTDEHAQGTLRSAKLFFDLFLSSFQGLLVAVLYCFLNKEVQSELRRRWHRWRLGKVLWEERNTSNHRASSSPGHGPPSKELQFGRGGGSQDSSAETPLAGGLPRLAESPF
Gamma-aminobutyric acid receptor subunit alpha-1/alpha-2/beta-2/gamma-2, sequence (P14867 whole entry): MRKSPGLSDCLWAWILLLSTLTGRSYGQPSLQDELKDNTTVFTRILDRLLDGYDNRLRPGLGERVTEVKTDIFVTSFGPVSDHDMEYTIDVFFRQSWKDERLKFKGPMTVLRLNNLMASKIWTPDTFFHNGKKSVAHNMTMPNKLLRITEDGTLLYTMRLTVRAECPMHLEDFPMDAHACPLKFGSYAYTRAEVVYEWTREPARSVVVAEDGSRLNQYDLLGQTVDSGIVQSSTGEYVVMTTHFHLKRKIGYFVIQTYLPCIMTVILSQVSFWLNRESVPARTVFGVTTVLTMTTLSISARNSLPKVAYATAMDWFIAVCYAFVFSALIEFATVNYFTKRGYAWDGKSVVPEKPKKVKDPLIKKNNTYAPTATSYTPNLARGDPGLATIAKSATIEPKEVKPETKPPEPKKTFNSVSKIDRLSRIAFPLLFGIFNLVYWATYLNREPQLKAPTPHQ
Gamma-aminobutyric acid receptor subunit alpha-1/alpha-2/beta-2/gamma-2, sequence (P47870 whole entry): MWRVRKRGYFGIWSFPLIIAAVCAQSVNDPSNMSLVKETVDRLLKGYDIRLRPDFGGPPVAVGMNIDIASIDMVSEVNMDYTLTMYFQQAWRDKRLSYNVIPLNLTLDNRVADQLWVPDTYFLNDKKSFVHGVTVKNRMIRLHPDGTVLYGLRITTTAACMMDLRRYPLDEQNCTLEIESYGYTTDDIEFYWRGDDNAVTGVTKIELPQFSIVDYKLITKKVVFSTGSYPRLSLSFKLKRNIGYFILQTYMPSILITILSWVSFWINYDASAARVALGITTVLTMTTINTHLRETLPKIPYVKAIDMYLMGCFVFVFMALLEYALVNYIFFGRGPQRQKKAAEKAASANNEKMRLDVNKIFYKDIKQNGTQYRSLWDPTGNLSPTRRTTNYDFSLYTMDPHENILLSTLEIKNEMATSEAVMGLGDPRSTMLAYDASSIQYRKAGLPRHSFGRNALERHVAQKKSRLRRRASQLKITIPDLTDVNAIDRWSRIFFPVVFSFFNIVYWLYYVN
Gamma-aminobutyric acid receptor subunit alpha-1/alpha-2/beta-2/gamma-2, sequence (P18507 whole entry): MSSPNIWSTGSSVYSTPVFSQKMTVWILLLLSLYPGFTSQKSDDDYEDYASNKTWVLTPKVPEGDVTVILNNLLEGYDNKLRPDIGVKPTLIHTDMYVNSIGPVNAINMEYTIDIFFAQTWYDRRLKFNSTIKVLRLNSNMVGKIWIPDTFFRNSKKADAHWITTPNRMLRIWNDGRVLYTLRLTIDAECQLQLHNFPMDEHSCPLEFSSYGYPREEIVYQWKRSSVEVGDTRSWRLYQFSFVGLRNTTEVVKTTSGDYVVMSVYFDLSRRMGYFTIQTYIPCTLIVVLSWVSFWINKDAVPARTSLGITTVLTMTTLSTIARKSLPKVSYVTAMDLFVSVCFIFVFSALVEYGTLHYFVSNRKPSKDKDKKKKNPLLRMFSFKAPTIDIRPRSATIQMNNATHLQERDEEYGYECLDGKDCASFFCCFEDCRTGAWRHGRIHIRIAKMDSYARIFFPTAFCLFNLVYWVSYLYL
Gamma-aminobutyric acid receptor subunit alpha-1/alpha-2/beta-2/gamma-2, sequence (P47869 whole entry): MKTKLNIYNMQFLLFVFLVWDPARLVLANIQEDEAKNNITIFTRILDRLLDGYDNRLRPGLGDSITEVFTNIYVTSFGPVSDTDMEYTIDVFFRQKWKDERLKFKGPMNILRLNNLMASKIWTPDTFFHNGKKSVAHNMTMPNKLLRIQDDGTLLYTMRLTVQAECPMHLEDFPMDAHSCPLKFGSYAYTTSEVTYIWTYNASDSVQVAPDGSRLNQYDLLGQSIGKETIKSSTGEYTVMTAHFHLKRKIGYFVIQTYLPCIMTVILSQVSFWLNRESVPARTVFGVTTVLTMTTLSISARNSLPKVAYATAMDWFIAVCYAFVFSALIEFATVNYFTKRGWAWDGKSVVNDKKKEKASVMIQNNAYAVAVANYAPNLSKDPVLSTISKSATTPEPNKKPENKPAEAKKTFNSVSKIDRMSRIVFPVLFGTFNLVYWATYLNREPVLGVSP

In the case of `CN(C)CCC=C1c2ccccc2C(C)(C)c2ccccc21`, the AC50 (in test [1]; on Glucocorticoid receptor; in test [2]) was above 30 µM each time.

On to `NCC(CC(=O)O)c1ccc(Cl)cc1` (configuration not stated) [BACLOFEN], for which the concentration at half-maximal activity (AC50) was above 30 µM in test [3]; above 30 µM in test [1]; above 30 µM in test [4]; above 30 µM at Glucagon receptor; above 30 µM in test [5]; above 10 µM in [6]. Further, the AC50 on Glucocorticoid receptor was above 30 µM; in test [2], above 30 µM; in [7], above 10 µM.

Take `CC(C)C[C@H]1C(=O)N2CCC[C@H]2[C@]2(O)O[C@](NC(=O)[C@@H]3C=C4c5cccc6[nH]c(Br)c(c56)C[C@H]4N(C)C3)(C(C)C)C(=O)N12` [BROMOCRIPTINE]: the AC50 in test [3] was above 30 µM; in test [1], above 30 µM; at Glucagon receptor it was above 30 µM; in [5], above 30 µM; in [6], 0.412 µM; on Glucocorticoid receptor, above 30 µM. For the same compound, the results for the AC50 in test [2] and in test [7] were above 30 µM and above 10 µM, respectively.

Take `O=C1Nc2ccc(Cl)cc2[C@@](C#CC2CC2)(C(F)(F)F)O1` [EFAVIRENZ]: the half-maximal activity concentration (AC50) at Glucocorticoid receptor was above 30 µM; in test [2], 18 µM.

`O=C(OCC(O)CO)c1ccccc1Nc1ccnc2cc(Cl)ccc12` (configuration not stated) [GLAFENINE]: the AC50 in [1], in test [4] and in test [2] was above 30 µM in each case.

As to `c1ccc([C@H]2CN3CCSC3=N2)cc1` [LEVAMISOLE], the concentration at half-maximal activity (AC50) (in test [1]; at Glucocorticoid receptor; in test [2]) was above 30 µM each time.

Take `C[C@H]1CNCCc2ccc(Cl)cc21` [LORCASERIN]: the AC50 (in test [1]; at Glucocorticoid receptor; in [2]) was above 30 µM in each case.

For the compound `C[C@@H](O)[C@H]1C(=O)N2C(C(=O)O)=C(S[C@@H]3CN[C@H](C(=O)N(C)C)C3)[C@H](C)[C@H]12` [MEROPENEM], the AC50 (in [1]; on Glucocorticoid receptor; in [2]) was above 300 µM in each case.

Consider `CNC1Cc2ccccc2N(C)c2ccccc21` (configuration not stated) [METAPRAMINE], for which the AC50 (in test [1]; at Glucocorticoid receptor; in test [2]) was above 30 µM in each case.

Take `COc1ccc(CC(C)(C)NC[C@H](O)c2cc(O)cc3c2OCC(=O)N3)cc1` [OLODATEROL]: the AC50 (in [1]; on Glucocorticoid receptor; in test [2]) was above 30 µM in each case.

As to `CCCN1C[C@H](CSC)C[C@@H]2c3cccc4[nH]cc(c34)C[C@H]21` [PERGOLIDE], the AC50 in test [3] was above 30 µM; in [1], above 30 µM; on Glucagon receptor it was above 30 µM; in [5] it was above 30 µM; in [6], 0.0205 µM; at Glucocorticoid receptor, above 30 µM. The AC50 in test [2] is above 30 µM; in test [7] it was above 10 µM.

Consider `C1CCC(C(CC2CCCCN2)C2CCCCC2)CC1` (configuration not stated) [PERHEXILINE], for which the AC50 (in test [1]; at Glucocorticoid receptor; in [2]) was above 30 µM each time.

In the case of `c1cnc(N2CCN(Cc3ccc4c(c3)OCO4)CC2)nc1` [PIRIBEDIL], the AC50 (in [1]; at Glucocorticoid receptor; in [2]) was above 30 µM in each case.

For `COCCCN1CCC(NC(=O)c2cc(Cl)c(N)c3c2OCC3)CC1` [PRUCALOPRIDE], the AC50 (on Glucocorticoid receptor; in [2]) was above 30 µM in each case.

In the case of `Cc1c(C(=O)NN2CCCCC2)nn(-c2ccc(Cl)cc2Cl)c1-c1ccc(Cl)cc1` [RIMONABANT], the AC50 in test [3] was above 30 µM; in test [1], above 30 µM; at Glucagon receptor it was above 30 µM; in [5], above 30 µM; in [6] it was above 10 µM; at Glucocorticoid receptor, above 30 µM. In test [2], half-maximal activity (AC50) was put at 17 µM.

Regarding `Cn1nnc2c(C(N)=O)ncn2c1=O` [TEMOZOLOMIDE], the AC50 is above 30 µM in test [3]; above 30 µM in test [1]; above 30 µM on Glucagon receptor; above 30 µM in test [5]; above 10 µM in [6]; above 30 µM in test [2]. Further, the AC50 in test [7] is above 10 µM.

In the case of `N[C@@H]1[C@H]2CN(c3nc4c(cc3F)c(=O)c(C(=O)O)cn4-c3ccc(F)cc3F)C[C@@H]12` [TROVAFLOXACIN], the half-maximal activity concentration (AC50) (at Glucocorticoid receptor; in test [2]) was above 30 µM in each case.

As a reminder, the AC50 is the concentration at which the activity in the assay is half-maximal.
